Reference: patent US9169251B2, “Pyrrolopyridine derivatives and their use as CRTH2 antagonists” (Novartis AG, priority 2004, dated 2015)

Biological target: T1, CRTh2 receptor (Homo sapiens, UniProt Q9Y5Y4)
T1 construct: expressed in transfected cells; host or cells: CHO.K1 (Chinese Hamster Ovary) cells, line CHO.K1-CRTh2
T1 sequence (Q9Y5Y4 1-395): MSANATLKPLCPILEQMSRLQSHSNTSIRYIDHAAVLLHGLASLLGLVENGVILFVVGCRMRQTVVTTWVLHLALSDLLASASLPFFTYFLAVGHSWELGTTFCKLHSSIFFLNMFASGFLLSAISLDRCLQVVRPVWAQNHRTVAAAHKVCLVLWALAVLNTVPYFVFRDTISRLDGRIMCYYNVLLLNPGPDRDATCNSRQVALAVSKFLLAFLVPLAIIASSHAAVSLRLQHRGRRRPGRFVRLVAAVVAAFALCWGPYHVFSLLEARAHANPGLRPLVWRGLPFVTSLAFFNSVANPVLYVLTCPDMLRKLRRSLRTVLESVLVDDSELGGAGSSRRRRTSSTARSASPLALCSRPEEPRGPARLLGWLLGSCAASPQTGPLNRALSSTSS
Experiment: Filtration binding assay: competition with [3H]-PGD2 on CHO.K1-CRTh2 membranes (called SPA binding assay)
Conditions: [3H]-PGD2 2.5 nM
Method: Filtration Binding Assay Protocol
The binding of CRTh2 antagonists is determined using membranes prepared from human CRTh2-expressing Chinese Hamster Ovary cells (CHO.K1-CRTh2). To produce cell membranes CHO.K1-CRTh2 cells cultured in roller bottles are harvested using cell dissociation buffer (Invitrogen). The cells are pelleted by centrifugation (167 g, 5 min). […] At 4° C. cells are homogenized using a Polytron® (IKA Ultra Turrax T25) for 5 bursts of 1 second.
The binding of [^3H]-PGD2 (157 Ci/mmol) to CHO.K1-CRTh2 membranes is determined in the absence (total binding) and presence (non-specific binding) of unlabelled PGD2 (1 μM). Subtraction of the cpm (counts per minute) of [^3H]-PGD2 binding in presence of excess unlabelled PGD2 from that observed in the absence of excess unlabelled PGD2 is defined as specific binding. […]
The plates are incubated at room temperature on a shaker for 1 hour, and then harvested (Tomtec Harvester 9600) onto GF/C filter plates using wash buffer (10 mM HEPES-KOH, pH 7.4). […] Plates are then counted using a Packard Top Count instrument, Plates are then read on the Packard Topcount with the 3H Scintillation program (1 min per well). […]
Ki values are determined using Sigma Plot™ software, using the Cheng-Prussoff equation. […]

Cc1c(CC(=O)O)c2cccnc2n1Cc1ccc(S(C)(=O)=O)cc1C(F)(F)F [Example 95, [1-(4-Methanesulfonyl-2-trifluoromethyl-benzyl)-2-methyl-1H-pyrrolo[2,3-b]pyridin-3-yl]-acetic acid]
Ki: 4 nM
